Test results published in ChEMBL document CHEMBL1201862, “PubChem BioAssay data set” (2004).
The source made the active and inactive calls.

What was measured:
[1] = Fluorescence Cell-Based Dose Response to Identify Inhibitors of Thrombin Receptor-Activating Peptide SFLLRN-Mediated P-Selectin Induction on Platelets. [Related pubchem assays: 1663 (Primary HTS), 1889 (retest at dose ), 1891 (counterscreen), 1678 (Project Summary)]; type: functional
[2] = Luminescence Cell-Based Dose Confirmation HTS to Identify Inhibitors of Platelet Dense Granule Release. [Related pubchem assays: 1663 (Primary HTS), 1678 (Summary of Project)]; type: functional
[3] = biological target: Luciferin 4-monooxygenase (Photinus pyralis, UniProt P08659); experiment: inhibition of purified Photinus pyralis luciferase – biochemical, luminescence, dose response (AID 1891)
Sequence of Luciferin 4-monooxygenase (P08659 whole entry): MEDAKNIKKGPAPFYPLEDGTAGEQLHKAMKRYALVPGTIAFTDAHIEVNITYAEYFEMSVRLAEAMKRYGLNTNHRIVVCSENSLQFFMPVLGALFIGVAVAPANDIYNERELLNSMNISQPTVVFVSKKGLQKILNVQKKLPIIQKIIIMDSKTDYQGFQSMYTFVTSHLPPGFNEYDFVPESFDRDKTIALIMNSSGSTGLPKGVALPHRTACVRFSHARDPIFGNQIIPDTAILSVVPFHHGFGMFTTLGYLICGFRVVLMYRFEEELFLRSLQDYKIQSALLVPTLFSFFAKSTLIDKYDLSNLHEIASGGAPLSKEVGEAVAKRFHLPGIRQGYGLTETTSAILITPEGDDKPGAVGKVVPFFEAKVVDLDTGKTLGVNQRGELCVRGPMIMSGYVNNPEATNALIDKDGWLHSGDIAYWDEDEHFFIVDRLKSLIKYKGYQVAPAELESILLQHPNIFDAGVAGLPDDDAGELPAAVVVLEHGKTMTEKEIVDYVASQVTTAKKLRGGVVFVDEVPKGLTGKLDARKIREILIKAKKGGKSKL

[4] = viability of HCT116 lacking mutant beta-catenin – cell-based, human colon tumor, dose response (AID 1045); type: functional;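 note: HCT116 colon tumor cells with beta catenin knocked out; cells exposed to compound for 60 hours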
X-box-binding protein 1 = biological target: T1, X-box-binding protein 1 (Homo sapiens, UniProt P17861); type: functional, Cricetulus griseus;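 note: confirmatory dose-response counter-screen serving a CHOP assay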
T1 sequence (P17861 whole entry): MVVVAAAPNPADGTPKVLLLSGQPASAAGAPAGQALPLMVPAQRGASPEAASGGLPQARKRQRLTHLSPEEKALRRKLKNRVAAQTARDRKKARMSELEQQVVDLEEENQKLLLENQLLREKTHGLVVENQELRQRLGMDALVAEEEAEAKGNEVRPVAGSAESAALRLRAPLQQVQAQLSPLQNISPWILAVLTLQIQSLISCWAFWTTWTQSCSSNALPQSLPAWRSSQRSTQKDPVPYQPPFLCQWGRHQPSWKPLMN

[5] = IC50 of Artemis nuclease activity blockers – biochemical, fluorescence intensity, dose response (AID 720701); type: functional;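 note: Artemis endonuclease enzyme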
[6] = viability of PTEN-deleted HCT116 cells – cell-based, HCT116 PTEN knockout, dose response (AID 1047); type: functional;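 note: HCT116 colon tumor cells with PTEN knocked out; cells exposed to compound for 60 hours before readout; potency for loss of cell viability measured by luminescence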
Transthyretin = Transthyretin (Homo sapiens, UniProt P02766); experiment: Luminescence-based cell-based high throughput dose response assay to identify activators of Transthyretin (TTR) transcription.; type: functional
[7] = biological target: Induced myeloid leukemia cell differentiation protein Mcl-1 (Homo sapiens, UniProt Q07820); experiment: blockers of MCL1 binding to BIM peptide – biochemical, fluorescence polarization, BIM-BH3 peptide, 1536-well, dose response (AID 2217)
Sequence of Induced myeloid leukemia cell differentiation protein Mcl-1 (Q07820 whole entry): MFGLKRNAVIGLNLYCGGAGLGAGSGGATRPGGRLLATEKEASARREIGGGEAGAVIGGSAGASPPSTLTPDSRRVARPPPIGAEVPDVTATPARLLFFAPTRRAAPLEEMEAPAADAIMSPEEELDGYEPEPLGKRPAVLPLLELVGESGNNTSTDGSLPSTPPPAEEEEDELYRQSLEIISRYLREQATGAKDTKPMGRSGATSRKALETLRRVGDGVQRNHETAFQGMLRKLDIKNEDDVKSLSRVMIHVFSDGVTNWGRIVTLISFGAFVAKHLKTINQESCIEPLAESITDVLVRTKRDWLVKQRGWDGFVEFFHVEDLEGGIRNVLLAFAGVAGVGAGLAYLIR

Bcl-2-like protein 1 = Bcl-2-like protein 1 (Homo sapiens, UniProt Q07817); experiment: blockers of BCLXL peptide binding – biochemical, fluorescence polarization, 1536-well, selectivity assay for MCL1 inhibitor project, dose response (AID 2218)
Sequence of Bcl-2-like protein 1 (Q07817 whole entry): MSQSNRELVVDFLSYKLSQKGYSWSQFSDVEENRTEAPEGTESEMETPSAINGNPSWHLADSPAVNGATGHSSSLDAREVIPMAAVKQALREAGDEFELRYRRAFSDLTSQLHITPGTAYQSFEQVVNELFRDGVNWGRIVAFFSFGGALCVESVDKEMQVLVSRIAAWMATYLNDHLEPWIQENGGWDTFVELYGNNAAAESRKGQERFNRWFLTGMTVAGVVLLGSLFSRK

[8] = fluconazole-exposed Candida albicans growth modulators – fluorescence, retest, confirmation (AID 2467); type: functional, cell-based
[9] = NIH-3T3 fibroblast cytotoxicity, dose response, cytotoxicity control, cell-based, fluorescence, Alamar Blue, secondary assay (AID 2327); type: functional;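 note: NIH-3T3 mouse fibroblasts cultured with fluconazole at 8 µg/mL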
[10] = cytotoxicity in SNB-19 cells – cell-based, CellTiter-Glo ATP luminescence, 8-48 h, dry powder, mechanism study for HRAS target identification, late-stage follow-up (AID 720611); type: functional
[11] = cytotoxicity in SR immunoblastic lymphoma cells – cell-based, CellTiter-Glo ATP luminescence, 8-48 h, dry powder, mechanism study for HRAS target identification, late-stage follow-up (AID 720608); type: functional
[12] = cytotoxicity in U-251 CNS tumor cells – cell-based, Alamar Blue fluorescence, 8/24/48 h, dry powder, HRAS target identification, dose response (AID 720605); type: functional
[13] = cytotoxicity in CCRF-CEM lymphoblastic leukemia cells – cell-based, CellTiter-Glo ATP luminescence, 8/24/48 h, dry powder, HRAS target identification, dose response (AID 720607); type: functional
[14] = cytotoxicity in mouse C2C12 myoblasts – cell-based, CellTiter-Glo ATP luminescence, 8/24/48 h, dry powder, cytotoxicity control for HRAS target identification, dose response (AID 720603); type: functional
[15] = cytotoxicity in SNB-19 CNS tumor cells – cell-based, Alamar Blue fluorescence, 8/24/48 h, dry powder, HRAS target identification, dose response (AID 720600); type: functional
[16] = cytotoxicity in LOX IMVI melanoma cells – cell-based, CellTiter-Glo ATP luminescence, 8/24/48 h, dry powder, HRAS target identification, dose response (AID 720602); type: functional
[17] = time-course viability loss in HT-29 cells – cell-based, CellTiter-Glo, multiple timepoints, dry powder, HRas target identification project, dose response (AID 720598); type: functional
[18] = antileishmanial activity on axenic amastigotes – plate reader, dry powder, dose response (AID 651892); type: functional, cell-based
[19] = African trypanosome bloodstream form growth inhibition – STIB900 strain, plate reader, cherry pick, dose response (AID 651893); type: functional, cell-based, Trypanosoma brucei rhodesiense; settings: Trypanosoma brucei
[20] = L6 myocyte viability loss – cell-based, plate reader, cherry-pick, cytotoxicity control, dose response (AID 651896); type: functional
[21] = host muscle cell viability loss – plate reader, dry powder, counter-screen for T. cruzi inhibitor project, dose response (AID 651895); type: functional, cell-based
[22] = antileishmanial activity on axenic amastigotes – plate reader, cherry pick, dose response (AID 651891); type: functional, cell-based; settings: Leishmania donovani
[23] = antimalarial activity against erythrocytic parasites – NF54 strain, plate reader, dry powder, dose response (AID 651889); type: functional, cell-based
[24] = T. cruzi growth inhibition in host cells, dose response, cell-based, plate reader, dry powder, set 2 (AID 652275); type: functional
[25] = intracellular Trypanosoma cruzi inhibitors in host cells – cell-based, plate reader, cherry-pick samples, set 3, dose response (AID 651818); type: functional;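 note: compounds incubated with infected cells for about four days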
[26] = anti-trypanosomal activity in BESM host cells – imaging, CA-I/72 strain, bovine embryo skeletal muscle, dry powder, dose response (AID 651885); type: functional, cell-based
[27] = African trypanosome bloodstream form growth inhibition – STIB900 strain, plate reader, dry powder, dose response (AID 651894); type: functional, cell-based
[28] = Trypanosoma cruzi replication inhibitors in host cells – cell-based, plate reader, dry powder samples, dose response (AID 651845); type: functional
[29] = intracellular Chagas parasite inhibition in myoblasts – Tulahuen strain, L-6 host cells, dry powder, dose response (AID 651890); type: functional, cell-based
[30] = biological target: Heat shock protein HSP 90-alpha (Homo sapiens, UniProt P07900); experiment: Luminescence-based dose response biochemical high throughput screening assay for inhibitors of the Heat Shock Protein 90 (HSP90). [Related pubchem assays: 1831 (Summary AID.), 1846 (Confirmation screen.), 1789 (Primary screen.)]
[31] = blockers of bursicon-stimulated LGR2 cAMP reporter – cell-based, HEK293, CRE-luciferase reporter, cherry pick, set 2, dose response (AID 743343); type: functional;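 note: transfected cells were stimulated with diluted bursicon conditioned medium after compound addition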
[32] = non-specific 3'UTR reporter inhibition in Clone20-Shn3RL – cell-based, Renilla luciferase, cherry-picked, counter-screen for Shn3 inhibitor project, dose response (AID 624133); type: functional
[33] = loss of viability in HepG2 cells – cell-based, CellTiter-Glo, cherry-picked, cytotoxicity control for Shn3 inhibitor project, dose response (AID 624134); type: functional
Jurkat = experiment: blockers of NF-kB activation in T cells – Jurkat, luciferase reporter, luminescence, B- and T-cell, dose response (AID 489004); type: functional, cell-based; settings: Homo sapiens;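 note: NF-kB luciferase reporter Jurkat cells stimulated with PMA plus ionomycin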
[34] = blockade of melanocortin 4 receptor signaling – cell-based, plate reader, cherry pick, counter-screen for LGR2 antagonist project, dose response (AID 743444); type: functional;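 note: transfected HEK 293 cells stimulated with alpha-MSH peptide; potency of inhibitors of the alpha-MSH evoked signal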
[35] = viability loss in HEK293 cells – cell-based, plate reader, cherry-picked samples, cytotoxicity control, dose response (AID 743446); type: functional
[36] = A549 cell cytotoxicity, dose response, cytotoxicity control, plate reader, cherry-pick, antagonist series (AID 743412); type: functional, cell-based
[37] = HEK-293T viability loss, compound-treated – cell-based, uHTS hits, cytotoxicity control for B/T-cell NF-kB inhibitor project, dose response (AID 489019); type: functional;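 note: IC50 reflects cytotoxicity as loss of cell viability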
[38] = toxicity toward HepG2 liver cells – cell-based, plate reader, cherry-pick, antagonist series, cytotoxicity control, dose response (AID 743416); type: functional
INS1 = experiment: INS-1E survival protection against cytokine death – cell-based, luminescence, retest, dose response (AID 449756); type: functional; settings: Rattus norvegicus;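 note: cell death triggered by IL-1 beta plus TNF-alpha plus IFN-gamma mixture; protective hits raise ATP signal compared with cytokine alone wells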
[39] = reduced cellular PGC1a acetyl-lysine signal – cell-based, cherry-picked samples, dose response (AID 720514); type: functional;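 note: potency may reflect raised or lowered acetylation signal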
[40] = reduction of Shn3 3'UTR-driven luciferase in osteoblasts – cell-based, Clone20 osteoblasts, firefly luciferase, cherry-picked, dose response (AID 624132); type: functional;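 note: firefly luciferase luminescence from reporter carrying the Shn3 3'UTR in osteoblasts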

COc1cc2c(cc1OC)C(/C=C(\O)c1ccc(NC(C)=O)cc1)=NCC2
> 112 µM (not active): EC50 [3]
active: EC50 [1] < 0.3 µM | EC50 [2] 3.33 µM

O=C(c1ccc2c3c(cccc13)C(=O)N(O)C2=O)N1CCCCC1
10 µM: Absolute IC50 (XBP1) (X-box-binding protein 1)
active: EC50 [4] 13.7 µM | IC50 [5] 11.5 µM | EC50 [6] 11 µM

CC(Oc1ccccc1)C(=O)N1CCN=C1SCc1ccccc1 (stereo not given)
inactive: EC50 (Transthyretin) > 167 µM

C=CCc1cccc(/C=N/NC(=O)CNc2cccc3ccccc23)c1O
inactive: EC50 [9] > 150 µM
> 109 µM (not active): IC50 [7] | IC50 (Bcl-2-like protein 1)
active: EC50 [8] 3.28 µM

C#CCCCC(=O)NCCOCCOCCOc1ccc(N(C(=O)CCl)C(C(=O)NCCc2ccccc2)c2cccs2)cc1Cl (stereo not given)
active: AC50 [10] 4.54 µM | AC50 [11] 1.18 µM | AC50 [12] 1.25 µM | AC50 [13] 1.38 µM | AC50 [14] 16.6 µM | AC50 [15] 22.4 µM | AC50 [16] 0.993 µM | AC50 [17] 4.9 µM

C[C@H]1CN([C@@H](C)CO)C(=O)c2cccc(NC(=O)c3ccncc3)c2O[C@@H]1CN(C)Cc1ccc(Oc2ccccc2)cc1
active: IC50 [20] 14.4 µM | AC50 [24] 0.00442 µM | AC50 [25] 0.08 µM | IC50 [26] 0.00066 µM | AC50 [28] 0.000457 µM | IC50 [29] 0.0295 µM
inactive: IC50 [18] 8.4 µM | IC50 [19] 5.78 µM | IC50 [21] 17.1 µM | IC50 [22] 13.2 µM | IC50 [23] 0.504 µM | IC50 [27] 1.5 µM

Cc1nc(NC(=O)/C=C/c2ccccc2)sc1C(=O)Nc1ccccc1Cl
active: IC50 [30] 2.91 µM

C#CC(=O)N(c1cccc(OC)c1)C(C(=O)NC1CCCC1)c1cccs1 (stereo not given)
active: AC50 [31] 2.53 µM | AC50 [32] 9.76 µM | AC50 [33] 3.76 µM | IC50 (Jurkat) 0.25 µM | AC50 [34] 2.25 µM | AC50 [35] 1.65 µM | AC50 [36] 8.46 µM | AC50 [38] 0.96 µM | AC50 (INS1) 0.65 µM | AC50 [39] 3.82 µM | AC50 [40] 3.8 µM
inactive: IC50 [37] 28.4 µM
